Assay results as given in article PMC5045412, “Inhibition of pro-HGF activation by SRI31215, a novel approach to block oncogenic HGF/MET signaling” (Oncotarget, 2016).

Experiments:
[1] = system: DiFi cells; assay: Proliferation of DiFi cells induced by HGF or fibroblast conditioned medium; assay type: cell-based; settings: 48 hours; for fibroblast-induced proliferation: fibroblast conditioned medium
Description: Cell lysates from EBC cells were used as control for pMET. B. DiFi cells were cultured in the presence of
HGF or fibroblast conditioned medium in the absence or the presence of JNJ38877605 or SRI 31215 for 48 hours. Neutralization of HGF
in fibroblast conditioned medium by anti-HGF antibodies inhibits growth promoting activity of fibroblasts (data not shown). […]

[2] = system: MET; assay: MET activation and downstream signaling in DU145 cells (immunoblotting); assay type: cell-based; settings: 30 minutes; for fibroblast-induced MET activation and signaling / MET activation induced by active HGF: serum-starved DU145 cells, SRI 31215 10 μM, JNJ 38877605 1 μM; for fibroblast-induced MET activation and signaling: 18Co conditioned media
Description: Figure 2 SRI 31215 inhibits the crosstalk between tumor cells and fibroblasts A. Inhibition of fibroblast-induced oncogenic signaling in tumor cells by SRI 31215. Serum-starved DU145 cells were treated with recombinant HGF or conditioned media from 18Co cells alone or in the presence of SRI 31215 (10 μM) or JNJ 38877605 (1 μM) for 30 minutes. The levels of pMET, pGab1, pAKT, pERK, and pSTAT3 were determined by immunoblotting. Specific bands for pMET and pGab1 are indicated by asterisks. B. Inhibition of fibroblast-induced cell scattering by SRI 31215. Scattering of DU145 cells was induced with recombinant HGF or with conditioned media from 18Co fibroblasts in the presence of SRI 31215 (10 μM) or JNJ 38877605 (1 μM) as indicated. Images were taken 24 hours after treatment.
Immunoblotting was performed using standard procedures. Membranes were blocked with 5% non-fat milk for 1 hour at RT, and incubated with primary antibodies overnight at 4°C. Primary antibodies used were anti-HGF (R&D Systems), anti-MET, anti-p-MET, anti-p-GAB1, anti-p-AKT, anti-p-ERK1/2, anti-vimentin (Cell Signaling Technology), anti-p-STAT3 (Upstate Cell Signaling Solutions), anti-E-cadherin (BD Transduction Laboratories), anti-β-actin (Sigma). Following washing with TBS-T buffer, membranes were incubated with horseradish peroxidase-conjugated secondary antibodies for 1 hour and then washed with TBS-T. Immunoblots were developed using the chemiluminescent detection system with ECL (Amersham). Protein loading was normalized by probing blots for the expression of β-actin.
Supplementary Figure S2: Dose-dependent inhibition of fibroblast induced MET activation by SRI 31215. DU145 cells were serum-starved and were treated with conditioned medium from 18Co fibroblasts for 30 minutes in the absence or the presence of increasing concentrations of SRI 31215 as indicated. The levels of pERK1/2, pAKT, pSTAT3 and β-actin were determined by […]
(also on this page, place not known: www.impactjournals.com/oncotarget/ Oncotarget, Materials 2016 Supplementary) […]

[3] = system: DU145 cells; assay: Cell scattering assay; assay type: cell-based; settings: 24 hours, SRI 31215 10 μM; for fibroblast-induced cell scattering: 18Co conditioned media, JNJ 38877605 1 μM
Description: DU145 cells were cultured in 6-well tissue culture plates at a density of 1×10^3 cells per well. After colonies formed (6-8 days), cells were serum-starved overnight and were then treated with recombinant HGF (10 ng/ml) or with conditioned media from 18Co fibroblasts in the presence or absence of SRI 31215 (10 μM) or the MET kinase inhibitor JNJ 38877605 (1 μM) for 24 hours. Cells were washed with PBS and colonies were fixed and stained with 0.5% crystal violet solution in 6% glutaraldehyde.

[4] = system: RKO cells; assay: Basal, constitutive migration of RKO cells; assay type: cell-based; settings: data not shown
Description: Cancer cells were seeded in 12-well plates and allowed to reach confluence. Following overnight serum-starvation, a scratch/wound was introduced into the cell monolayer with a sterile tip. Cells were cultured in serum-free media or were treated with recombinant HGF (10 ng/ml) or serum-free conditioned media from fibroblasts (50%) in the presence or absence of SRI 31215 or JNJ 38877605. Images of migrating cells were captured at 0, 12 and 24 hours after the treatment.

[5] = system: RKO cells; assay: Clonogenic growth and viability of HGF-producing RKO cells with EGFR inhibitors; assay type: cell-based; settings: SRI 31215 10 μM, JNJ 38877605 1 μM; for sensitization to gefitinib: HGF-producing RKO cells; for clonogenic growth, agent alone / clonogenic growth, combination with cetuximab: RKO cells, HAI-1 20 nM; for clonogenic growth, combination with cetuximab: cetuximab 50 μg/ml
Description: Figure 5 Inhibitors of HGF/MET signaling prevent the innate and acquired resistance to cetuximab A. and B. RKO cells were treated with cetuximab (50 μg/ml) (A) of gefitinib (B) alone, or in combination with SRI 31215 (10 μM), JNJ 38877605 (1 μM) or recombinant HAI-1 (20 nM) as indicated and clonogenic growth was monitored as described in Materials and Methods. C. and D. Caco2 cells were treated with cetuximab or gefitinib alone or in the presence of CM from fibroblasts and SRI 31215 (10 μM) or JNJ 38877605 (1 μM) as indicated. #: p<0.05, compared to control (CTRL); NS: not significant.
Cell titer-glo luminescent cell viability assay kit was purchased from Promega. […] For clonogenic assay, cells were seeded in 6-well plates at a density of 400 cells per well, serum starved overnight, and treated as indicated. After colony formation (8-12 days), cells were stained with crystal violet and the number of colonies was determined using ImageQuantTL (GE Health Care Life Sciences).
Supplementary Figure S3: Inhibition of HGF/MET signaling sensitizes HGF-producing RKO colon cancer cells to gefitinib. A. RKO cells (HGF+) and B. HT29 (HGF-) cells were treated with gefitinib (5 μM) in the absence or the presence of SRI 31215 (10 μM) or JNJ 38877605 (1 μM) as indicated and viability was determined 24 and 72 hours after treatment. # indicates statistical significance compared to samples treated with gefitinib alone as determined by Students’ t-test (p<0.05).
(also on this page, place not known: www.impactjournals.com/oncotarget/ Oncotarget, Materials 2016 Supplementary (HGF +) (HGF -)) […]

[6] = system: DiFi cells; assay: Caspase-Glo 3/7 Assay; assay type: cell-based; settings: fibroblast conditioned medium, 18h
Description: Figure 6 Fibroblasts inhibit the proapoptotic activity of EGFRi in an HGF-dependent manner A. and B. DiFi cells were treated with gefitinib (0.5 μM) or cetuximab (0.5 μg/ml) in the absence or the presence of conditioned medium from fibroblasts and SRI 31215 and JNJ 38877605 as indicated. The viability was determined after 72 hours. In B, fibroblast conditioned medium was incubated with anti HGF or anti-IL1β antibodies. C. and D. DiFi cells were treated with gefitinib (C) or cetuximab (D) in the presence of conditioned medium from fibroblasts and inhibitors of HGF/MET signaling as indicated for 18h. Caspase activity was assessed by the Caspase-Glo 3/7 Assay from Promega.
DiFi cells were seeded at a density of 20,000 cells/well in a 96 well plate and were treated with EGFRi in the absence or the presence of SRI 31215 or JNJ 38877605 for 18h. Caspase activity was assessed by the Caspase-Glo 3/7 Assay from Promega following the manufacturer's instructions.

[7] = system: DU145 cells; parameters: method as in PMID 26985294; settings: dose-dependent; cited from earlier work

Cn1cc(-c2ccc3nnc(C(F)(F)c4ccc5ncccc5c4)n3n2)cn1 [JNJ 38877605, reference compound]
proliferation induced by recombinant, active HGF [1]: prevented
fibroblast-induced proliferation [1]: prevented
fibroblast-induced MET activation and signaling [2]: prevented
MET activation induced by active HGF [2]: prevented
fibroblast-induced cell scattering [3]: prevented
basal, constitutive migration [4]: inhibit
sensitization to gefitinib [5]: sensitized
clonogenic growth, agent alone [5]: did not impact
clonogenic growth, combination with cetuximab [5]: significant decrease
gefitinib-induced activation of caspase 3 and caspase 7 in the presence of fibroblasts [6]: restored

CC1CN(CC2CCN(Cc3ccccc3)CC2)C(=O)N(c2cccc(C(=N)N)c2)C1 (centres unmarked) [SRI 31215, 3-(3-((1-benzylpiperidin-4-yl)methyl)-5-methyl-2-oxotetrahydropyrimidin-1(2H)-yl)benzimidamide]
proliferation induced by recombinant, active HGF [1]: did not influence
fibroblast-induced proliferation [1]: as efficient as JNJ 38877605 in preventing
fibroblast-induced ERK1/2, AKT and STAT3 activation ([2]; DU145 cells, 18Co conditioned medium, increasing concentrations, dose-dependent): inhibited
fibroblast-induced MET activation and signaling [2]: prevented
MET activation induced by active HGF [2]: did not prevent
fibroblast-induced cell scattering [3]: prevented
scattering induced by active HGF [3]: did not interfere
basal, constitutive migration [4]: inhibit
sensitization to gefitinib [5]: sensitized
clonogenic growth, agent alone [5]: did not impact
clonogenic growth, combination with cetuximab [5]: significant decrease
gefitinib-induced activation of caspase 3 and caspase 7 in the presence of fibroblasts [6]: restored
concentration at which biological activity (block of scattering) was detected [7]: 1 μM
